These molecules were tested against T1, UDP-N-acetylmuramoylalanine--D-glutamate ligase (Streptococcus pneumoniae serotype 4 (strain ATCC BAA-334 / TIGR4), UniProt Q97RU8) (assay: Inhibitory activity against MurD from Streptococcus pneumoniae).
T1 sequence (Q97RU8 whole entry): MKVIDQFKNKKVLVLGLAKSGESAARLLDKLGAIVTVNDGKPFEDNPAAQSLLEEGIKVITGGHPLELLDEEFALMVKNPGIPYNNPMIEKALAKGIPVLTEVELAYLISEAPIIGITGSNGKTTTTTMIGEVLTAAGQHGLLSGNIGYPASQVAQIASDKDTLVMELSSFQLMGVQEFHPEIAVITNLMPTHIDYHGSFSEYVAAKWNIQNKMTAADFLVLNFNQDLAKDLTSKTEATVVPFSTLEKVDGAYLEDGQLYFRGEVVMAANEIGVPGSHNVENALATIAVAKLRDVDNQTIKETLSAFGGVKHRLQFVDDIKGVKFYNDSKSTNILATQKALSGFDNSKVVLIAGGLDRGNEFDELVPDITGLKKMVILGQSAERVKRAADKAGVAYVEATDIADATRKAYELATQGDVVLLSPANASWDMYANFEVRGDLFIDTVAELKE

Compound	IC50 [µM]
CC(NC(=O)OCc1ccccc1)P(=O)(O)CC(CCC(=O)O)C(=O)O (configuration not stated)	100

What follows are molecules tested against T2, UDP-N-acetylmuramoylalanine--D-glutamate ligase (Escherichia coli K-12, UniProt P14900) (assay: Inhibitory activity against MurD from Escherichia coli).
T2 sequence (P14900 whole entry): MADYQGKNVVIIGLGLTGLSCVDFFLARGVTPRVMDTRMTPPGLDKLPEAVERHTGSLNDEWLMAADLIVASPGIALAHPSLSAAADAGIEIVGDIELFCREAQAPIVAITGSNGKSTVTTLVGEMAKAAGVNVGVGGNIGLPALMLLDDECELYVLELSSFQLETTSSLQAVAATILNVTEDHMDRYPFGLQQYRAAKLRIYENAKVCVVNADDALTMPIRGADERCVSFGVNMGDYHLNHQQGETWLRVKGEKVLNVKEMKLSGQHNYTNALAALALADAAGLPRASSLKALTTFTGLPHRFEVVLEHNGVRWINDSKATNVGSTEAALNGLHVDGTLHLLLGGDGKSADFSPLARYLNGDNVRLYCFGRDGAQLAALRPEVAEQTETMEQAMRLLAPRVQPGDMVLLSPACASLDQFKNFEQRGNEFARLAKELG

Compound	IC50 [µM]
CC(NC(=O)/C=C/c1ccccc1)P(=O)(O)CC(CCC(=O)O)C(=O)O (configuration not stated)	432
CC(NC(=O)/C=C/c1ccc2c(c1)OCO2)P(=O)(O)CC(CCC(=O)O)C(=O)O (configuration not stated)	95
CC(NC(=O)[C@@H](C)NS(=O)(=O)Cc1ccc([N+](=O)[O-])cc1)P(=O)(O)CC(CCC(=O)O)C(=O)O (some centres not stated)	78

The molecules below were run against T3, UDP-N-acetylmuramoylalanine--D-glutamate ligase (Escherichia coli K-12) (UniProt P14900) (assay: Residual activity of MurD from Escherichia coli at 1 mM).
T3 sequence (whole entry): T2 sequence (P14900 whole entry)

Compound	Activity [%]
CC(NC(=O)/C=C/c1ccc2c(c1)OCO2)P(=O)(O)CCC(=O)O (configuration not stated)	91
CC(NC(=O)/C=C/c1cccc(O)c1)P(=O)(O)CC(CCC(=O)O)C(=O)O (configuration not stated)	23
CC(NC(=O)[C@H](C)NS(=O)(=O)Cc1ccc([N+](=O)[O-])cc1)P(=O)(O)CCC(=O)O (some centres not stated)	100
CC(NC(=O)[C@@H](C)NS(=O)(=O)Cc1cccc([N+](=O)[O-])c1)P(=O)(O)CC(CCC(=O)O)C(=O)O (some centres not stated)	19
CC(NS(=O)(=O)c1cccc([N+](=O)[O-])c1)P(=O)(O)CC(CCC(=O)O)C(=O)O (configuration not stated)	52
CC(NC(=O)/C=C/c1ccccc1)P(=O)(O)CC(CCC(=O)O)C(=O)O (configuration not stated)	28
CCC(C)C(NC(=O)OCc1ccccc1)P(=O)(O)CC(CCC(=O)O)C(=O)O (configuration not stated)	83
CC(NS(=O)(=O)Cc1ccc(F)cc1Cl)P(=O)(O)CC(CCC(=O)O)C(=O)O (configuration not stated)	37
CC(NS(=O)(=O)c1ccccc1)P(=O)(O)CC(CCC(=O)O)C(=O)O (configuration not stated)	54
CC(NS(=O)(=O)Cc1ccc(C(F)(F)F)cc1)P(=O)(O)CC(CCC(=O)O)C(=O)O (configuration not stated)	50
CC(NS(=O)(=O)c1ccc2ccccc2c1)P(=O)(O)CC(CCC(=O)O)C(=O)O (configuration not stated)	55
CC(C)CC(NC(=O)OCc1ccccc1)P(=O)(O)CC(CCC(=O)O)C(=O)O (configuration not stated)	65
CC(NC(=O)[C@@H](C)NC(=O)Cc1ccc2c(c1)OCO2)P(=O)(O)CC(CCC(=O)O)C(=O)O (some centres not stated)	44
CC(C)C(NC(=O)OCc1ccccc1)P(=O)(O)CC(CCC(=O)O)C(=O)O (configuration not stated)	66
CC(NC(=O)OCc1ccccc1)P(=O)(O)CCC(=O)O (configuration not stated)	92
CC(NS(=O)(=O)Cc1ccccc1[N+](=O)[O-])P(=O)(O)CC(CCC(=O)O)C(=O)O (configuration not stated)	30
CC(NS(=O)(=O)Cc1ccc([N+](=O)[O-])cc1)P(=O)(O)CC(CCC(=O)O)C(=O)O (configuration not stated)	47
CC(NC(=O)OCc1ccccc1)P(=O)(O)CC(CCC(=O)O)C(=O)O (configuration not stated)	41
CC(NS(=O)(=O)Cc1cccc(C(F)(F)F)c1)P(=O)(O)CC(CCC(=O)O)C(=O)O (configuration not stated)	49
CC(NS(=O)(=O)Cc1cccc([N+](=O)[O-])c1)P(=O)(O)CC(CCC(=O)O)C(=O)O (configuration not stated)	22
CC(NC(=O)[C@@H](C)NS(=O)(=O)Cc1ccc([N+](=O)[O-])cc1)P(=O)(O)CC(CCC(=O)O)C(=O)O (some centres not stated)	8
CC(NC(=O)Cc1ccc2c(c1)OCO2)P(=O)(O)CC(CCC(=O)O)C(=O)O (configuration not stated)	36
CC(NS(=O)(=O)Cc1ccccc1)P(=O)(O)CC(CCC(=O)O)C(=O)O (configuration not stated)	40

Source: ChEMBL document CHEMBL1147770, “Design, synthesis and structure-activity relationships of new phosphinate inhibitors of MurD” (Bioorg Med Chem Lett, 2006)
